# Columns and labels:
# [1] = biological target: T1, GST-NDR1 (Homo sapiens, UniProt Q15208, T444A); assay: GST-NDR1 kinase assay (peptide kinase assay); format: biochemical; conditions: compared with wild type
# T1 construct: made in house; host or cells: E. coli BL21-DE3-pRep4
# Experimental: 1 microgram of purified recombinant GST-NDR1 wild type and mutants (without further treatment or autophosphorylated for 2 h in the presence or absence of 1 mM CaCl2 and […] (Sigma)) were assayed in 20 microliter of reaction mixture containing 20 mM Tris-HCl pH 7.5, 10 mM MgCl2, 1 mM DTT, 100 microM [gamma-^32P]ATP (˜0.5 microCi/microliter), and 1 mM NDR1 substrate peptide ([…]; SEQ ID NO:22). After 30 mins incubation at 30° C., reactions were stopped with 50 mM EDTA, and 10 microliters of reaction mixture were spotted onto 2 cm^2 squares of P81 phosphocellulose paper (Whatman). These were subsequently washed for 4×5 min and 3×20 min in 1% phosphoric acid and once in acetone before counting in a liquid scintillation counter. One unit of NDR1 activity was defined as the amount which catalyses the phosphorylation of 1 nmol peptide substrate in 1 min.
# Specific activity of GST-NDR1 mutants was also measured by a peptide kinase assay as described above. For this purpose, 1 microgram of purified GST-NDR1 wild type and alanine mutants were left without further treatment or autophosphorylated for 2 h in the presence or absence of 1 mM CaCl2 and […].
# [2] = test system: myc-hMOB1; assay: Co-immunoprecipitation of HA-NDR and myc-hMOB1 from COS-1 cells; format: binding, human; conditions: COS-1 cells treated with OA prior to lysis
# Experimental: HA-tagged hNDR and myc-tagged hMOB1 were cotransfected in COS1 cells, which were stimulated with okadaic acid or solvent alone. After cell lysis and extract preparation, HA-NDR was immunoprecipitated and co-immunoprecipitated myc-hMOB1 detected or Myc-hMOB1 was immunoprecipitated and co-immunoprecipitated HA-NDR detected.
# HA-NDR, wt and mutants, and myc-hMOB1 were cotransfected into COS-1 cells and the cells were treated with OA prior to lysis. HA-NDR was immunoprecipitated and the coimmunoprecipitated myc-hMOB1 detected. […] Furthermore, the two important in vivo phosphorylation sites of NDR, serine-281 in the activation segment and the hydrophobic motif site threonine-444 in the C-terminal regulatory domain were tested, as well as the threonine 74 site in the N-terminal regulatory domain, for their role in NDR-MOB interaction.
# HA-NDR N-terminal point mutants and myc-mob1 were co-transfected into COS1 cells which were treated with OA prior to lysis. HA-NDR mutants were immunoprecipitated and coimmunoprecipitated myc-hMOB1 detected.
# In this Example, the effect of treatment of COS1 cells with BAPTA-AM on the NDR-MOB Interaction was determined. HA-NDR and myc-MOB1 was cotransfected into COS1 cells and the cells were treated with BAPTA-AM and OA or the solvents alone prior to lysis. HA-NDR was immunoprecipitated and co-immunoprecipitated myc-MOB1 detected. The kinase activity of the HA-NDR immunoprecipitates was measured in a peptide kinase assay.
# [3] = test system: GST-NDR1; assay: Immunodetection of GST-NDR1 phosphorylated on Ser281 or Thr444 after in vitro autophosphorylation; format: biochemical, human; conditions: in vitro autophosphorylation with or without Ca2+/S100B
# Experimental: (§1) Either 1 microgram GST-NDR1 or HA-NDR1 immunoprecipitated from 100 microgram COS-1 detergent extracts as described above was separated on 10% SDS-PAGE and immunoblotted 2 h at RT or overnight at 4° C. with anti-Ser281P antisera (1:1000) in the presence of 50 microg/ml competing unphosphopeptide or anti-Thr444P purified antibody (1:500). Both antibodies were detected with horseradish peroxidase-conjugated donkey anti-rabbit Ig antibody (Amersham biosciences) and developed by ECL (chemiluminescence; Amersham Pharmacia Biotech).
# To reliably quantify the effect of S100B on NDR1 phosphorylation status, rabbit polyclonal antibodies were raised against phosphoepitopes comprising Ser281 or Thr444. GST-NDR1 mutants were treated essentially as described in Example 2 and detected either with anti-NDR1_C-term antiserum or polyclonal antibodies recognising NDR1 phosphorylated on Ser281 or Thr444.
# [4] = test system: HA-NDR1; assay: Immunodetection of HA-NDR1 phosphorylated on Ser281 or Thr444 from COS-1 cells; format: cell-based, human
# Experimental: as §1
# To examine this possibility, extracts from transfected COS-1 cells were analyzed with the anti-Ser281P and anti-Thr444P antisera. Protein extracts (10 microg) from transfected COS-1 cells were immunoblotted with 12CA5 to verify similar expression levels of each HA-NDR1 construct. For the analysis of phosphorylation status, 12CA5-immunoprecipitated HA-NDR1 variants (out of 100 microg protein extract) were analysed by immunoblotting with phosphospecific antibodies directed against P-S281 or P-T444.
# Protein extracts (10 microg) from mock- and HA-NDR1-transfected COS-1 cells were also immunoblotted with 12CA5 to verify equal expression levels of HA-NDR1 construct. For the analysis of phosphorylation status, 12CA5-immunoprecipitated HA-NDR1 (out of 100 microgram protein extract) was analysed by immunoblotting with phosphospecific antibodies directed against P-S281 or P-T444.
# T1 sequence (Q15208 whole entry T444A): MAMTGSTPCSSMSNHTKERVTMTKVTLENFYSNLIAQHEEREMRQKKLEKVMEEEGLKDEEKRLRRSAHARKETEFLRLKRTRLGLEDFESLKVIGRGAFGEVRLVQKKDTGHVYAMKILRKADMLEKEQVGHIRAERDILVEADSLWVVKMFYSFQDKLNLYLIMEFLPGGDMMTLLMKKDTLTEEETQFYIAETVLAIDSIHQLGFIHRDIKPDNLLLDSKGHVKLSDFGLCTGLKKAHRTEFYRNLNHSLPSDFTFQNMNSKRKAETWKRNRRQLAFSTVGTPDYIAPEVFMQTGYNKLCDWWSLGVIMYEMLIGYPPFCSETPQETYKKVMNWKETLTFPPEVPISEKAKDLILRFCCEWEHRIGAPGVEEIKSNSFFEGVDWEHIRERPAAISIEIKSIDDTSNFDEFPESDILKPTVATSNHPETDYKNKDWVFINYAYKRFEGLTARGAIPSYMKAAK
Substance,decrease of kinase activity of GST-NDR1 mutant [1],interaction of HA-NDR variant with myc-hMOB1 [2],phosphorylation of GST-NDR1 on Ser281 and Thr444 (phosphospecific antibodies) [3],interaction of HA-NDR variant with myc-hMOB1 ([2]; listed as threonine 74),phosphorylation of HA-NDR1 on Ser281 ([4]; immunoblot with anti-P-S281),phosphorylation of HA-NDR1 on Thr444 ([4]; immunoblot with anti-P-T444)
T444A: NDR1 alanine mutant of phosphorylation residue Thr444; GST fusion or HA-tagged,about 5 fold,still interact with MOB1,almost normal autophosphorylation on Ser281,–,–,–
T74A: NDR1 alanine mutant of phosphorylation residue Thr74; GST fusion or HA-tagged,–,complete absence of interaction with MOB1,abolished the S100B-mediated increase of phosphorylation for both Ser281 and Thr444 residues,not tolerated for the interaction with MOB,–,–
"K118A: NDR1 kinase dead mutant, Lys 118 to alanine; GST fusion or HA-tagged",–,still able to interact with hMOB1,–,–,did not display any phophorylation on this position,became phosphorylated even after abolishing the kinase activity

# — US8008452B2, “Phosphorylated Ndr kinase” (Novartis Forschungesstiftung, Zweigniederlassung Friedrich …, priority 2002, dated 2011)
